Each structure is given as a SMILES string. pKd: −log10 of the molar value.

The text below walks through data of patent US8552205B2, “Derivatives of 6,7-dihydro-5H-imidazo[1,2-alpha]imidazole-3-carboxylic acid amides” (Boehringer Ingelheim International GmbH, priority 2007, dated 2013).

In the first experiment the target is T1, LFA-1 (CD18/CD11a) binding to ICAM-1 (Homo sapiens, UniProt P05107+P20701).
T1 construct: LFA-1 is immunopurified using the TS2/4 antibody from a 20 g pellet of human JY or SKW3 cells; endogenous in cells; sICAM-1 made in house, secreted from transfected CHO DUX cells
T1 sequence (P20701 26-1170): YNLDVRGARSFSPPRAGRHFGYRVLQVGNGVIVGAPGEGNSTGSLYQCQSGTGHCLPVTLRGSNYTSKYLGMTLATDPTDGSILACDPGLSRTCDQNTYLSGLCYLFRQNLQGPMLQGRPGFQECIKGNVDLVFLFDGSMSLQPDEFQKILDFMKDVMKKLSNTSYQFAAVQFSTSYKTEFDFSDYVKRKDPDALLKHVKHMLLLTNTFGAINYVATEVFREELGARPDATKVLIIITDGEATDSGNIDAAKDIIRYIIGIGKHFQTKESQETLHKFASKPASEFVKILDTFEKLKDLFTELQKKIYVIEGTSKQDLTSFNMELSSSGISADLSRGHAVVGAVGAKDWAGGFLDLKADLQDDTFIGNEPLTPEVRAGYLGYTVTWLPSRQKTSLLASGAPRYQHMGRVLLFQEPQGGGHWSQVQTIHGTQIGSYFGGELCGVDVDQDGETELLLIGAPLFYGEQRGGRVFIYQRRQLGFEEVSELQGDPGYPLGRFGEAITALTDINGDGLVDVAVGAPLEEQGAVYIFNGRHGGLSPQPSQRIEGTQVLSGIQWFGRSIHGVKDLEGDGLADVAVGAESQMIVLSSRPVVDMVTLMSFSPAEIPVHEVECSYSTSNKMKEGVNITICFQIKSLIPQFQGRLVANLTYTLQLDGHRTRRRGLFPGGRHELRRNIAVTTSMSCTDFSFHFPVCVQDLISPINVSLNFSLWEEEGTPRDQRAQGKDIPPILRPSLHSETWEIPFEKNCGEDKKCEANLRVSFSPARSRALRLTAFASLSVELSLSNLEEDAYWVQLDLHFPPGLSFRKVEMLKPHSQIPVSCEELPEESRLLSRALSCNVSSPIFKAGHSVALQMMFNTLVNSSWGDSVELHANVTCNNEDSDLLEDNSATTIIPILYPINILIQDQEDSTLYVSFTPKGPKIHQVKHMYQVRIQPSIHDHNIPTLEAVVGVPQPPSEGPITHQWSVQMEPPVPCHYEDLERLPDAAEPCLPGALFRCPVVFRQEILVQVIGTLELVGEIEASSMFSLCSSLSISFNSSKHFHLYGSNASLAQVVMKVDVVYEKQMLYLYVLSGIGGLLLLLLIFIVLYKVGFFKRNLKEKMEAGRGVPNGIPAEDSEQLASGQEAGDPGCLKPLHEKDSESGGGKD
T1 sequence (P05107 23-769): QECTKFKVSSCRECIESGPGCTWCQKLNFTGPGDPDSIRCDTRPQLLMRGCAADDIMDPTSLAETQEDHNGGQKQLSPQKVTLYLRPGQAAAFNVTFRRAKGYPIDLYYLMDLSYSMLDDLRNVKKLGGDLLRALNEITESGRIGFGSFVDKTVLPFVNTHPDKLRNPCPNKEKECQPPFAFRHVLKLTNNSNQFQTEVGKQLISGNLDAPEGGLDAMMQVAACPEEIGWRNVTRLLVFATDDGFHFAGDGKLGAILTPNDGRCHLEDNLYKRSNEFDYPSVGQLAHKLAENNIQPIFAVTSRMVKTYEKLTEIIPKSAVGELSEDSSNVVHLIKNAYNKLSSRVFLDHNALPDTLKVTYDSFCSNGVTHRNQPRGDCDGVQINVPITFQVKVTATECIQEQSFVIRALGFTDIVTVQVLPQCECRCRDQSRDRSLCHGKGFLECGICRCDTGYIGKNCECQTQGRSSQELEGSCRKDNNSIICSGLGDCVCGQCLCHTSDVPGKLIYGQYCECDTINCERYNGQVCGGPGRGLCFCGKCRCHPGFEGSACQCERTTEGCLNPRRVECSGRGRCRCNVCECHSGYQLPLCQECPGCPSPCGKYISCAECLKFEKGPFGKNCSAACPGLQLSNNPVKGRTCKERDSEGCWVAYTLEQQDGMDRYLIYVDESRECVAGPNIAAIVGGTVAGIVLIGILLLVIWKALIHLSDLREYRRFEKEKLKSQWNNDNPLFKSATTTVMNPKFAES
Briefly: Assay to determine inhibition of LFA-1 binding to ICAM-1. As to conditions: immunopurified LFA-1 binding to plate-bound sICAM-1; read-out: LFA/ICAM1 Kd. The source says: Assay to Determine Inhibition of LFA-1 Binding to ICAM-1
This assay protocol is designed to study the direct antagonism, by a test compound, of the interaction of ICAM-1 with the Leukointegrin CD18/CD11a (LFA-1).
LFA-1 is immunopurified using the TS2/4 antibody from a 20 g pellet of human JY or SKW3 cells, utilizing a protocol previously described (Dustin, M. J.; et al., J. Immunol. 1992, 148, 2654-2660). The LFA-1 is purified from SKW3 lysates by immunoaffinity chromatography on TS2/4 LFA-1 mAb Sepharose and eluted at pH 11.5 in the presence of 2 mM MgCl2 and 1% octylglucoside. After collection and neutralization of fractions from the TS2/4 column, samples are pooled and precleared with Protein G agarose.
A soluble form of ICAM-1 is constructed, expressed, purified and characterized as previously described (Marlin, S.; et al., Nature, 1990, 344, 70-72 and see Arruda, A.; et al., Antimicrob. Agents Chemother. 1992, 36, 1186-1192). Briefly, isoleucine 454 which is located at the putative boundary between domain 5 of the ectodomain and the transmembrane domain, is changed to a stop codon using standard oligonucleotide-directed mutagenesis. This construction yields a molecule identical with the first 453 amino acids of membrane bound ICAM-1. An expression vector is created with a hamster dihydrofolate reductase gene, a neomycin-resistance marker, and the coding region of the sICAM-1 construct described above, along with the promoter, splice signals, and polyadenylation signal of the SV40 early region. The recombinant plasmid is transfected into CHO DUX cells using standard calcium phosphate methods. Cells are passaged in selective media (G418) and colonies secreting sICAM-1 are amplified using methotrexate. sICAM-1 is purified from serum-free media using traditional non-affinity chromatographic techniques, including ion exchange and size exclusion chromatography.
LFA-1 binding to ICAM-1 is monitored by first incubating sICAM-1 at 40 μg/mL in Dulbecco's phosphate buffered saline with calcium and magnesium, additional 2 mM MgCl2 and 0.1 mM PMSF (Diluting Buffer) in a 96-well plate for 30 min at room temperature. Plates are then blocked by the addition of 2% (w/v) bovine serum albumin in Diluting Buffer for 37° C. for 1 h. Blocking solution is removed from wells, and test compounds are diluted and then added followed by the addition of approximately 25 ng of immunoaffinity purified LFA-1. The LFA-1 is incubated in the presence of test compound and ICAM-1 at 37° C. for 1 h. Wells are washed 3 times with Diluting Buffer. The bound LFA-1 is detected by the addition of a polyclonal antibody directed against a peptide corresponding to the CD18 cytoplasmic tail in a 1:100 dilution with Diluting Buffer and 1% BSA and allowed to incubate for 45 min at 37° C. Wells are washed 3 times with Diluting Buffer and the bound polyclonal antibody is detected by the addition of a 1:4000 dilution of horse radish peroxidase conjugated to goat immunoglobulin directed against rabbit immunoglobulin. This reagent is allowed to incubate for 20 min at 37° C., wells are washed as above and the substrate for the horse radish peroxidase is added to each well to develop a quantitative colorimetric signal proportional to the amount of LFA-1 bound to sICAM-1. Soluble ICAM-1 (60 μg/mL) is used as a positive control for inhibition of the LFA-1/ICAM-1 interaction. The lack of the addition of LFA-1 to the binding assay is used as a background control for all samples. A dose-response curve is obtained for all test compounds.
On to `CC(=O)N[C@H]1CCN(C(=O)C2(NC(=O)c3cnc4n3[C@](C)(Cc3ccc(C#N)cc3)C(=O)N4c3cc(Cl)cc(Cl)c3)CC2)C1` [Compound 12], for which the pKd is 8.27.
Same read-out and setting: then `C[C@H](NC(=O)c1cnc2n1[C@](C)(Cc1ccc(C#N)cc1)C(=O)N2c1cc(Cl)cc(Cl)c1)C(=O)N1CCC[C@@H]1CO` [Compound 215], with 7.41; and `C[C@H](NC(=O)c1cnc2n1[C@](C)(Cc1ccc(C#N)cc1)C(=O)N2c1cc(Cl)c(F)c(Cl)c1)C(=O)NC1(c2ccccn2)CC1` [Compound 55], with 8.00; and `C[C@@]1(Cc2ccc(C#N)cc2)C(=O)N(c2cc(Cl)cc(Cl)c2)c2ncc(C(=O)NC3(C(=O)NC4(C(N)=O)CC4)CC3)n21` [Compound 72], with 8.08.
Still for that read-out and setting: with `COC(=O)[C@H]1CC[C@@H](NC(=O)C2(NC(=O)c3cnc4n3[C@](C)(Cc3ccc(C#N)cc3)C(=O)N4c3cc(Cl)cc(Cl)c3)CC2)C1` [Compound 109] the figure was 7.55.
In the case of `C[C@@]1(Cc2ccc(C#N)cc2)C(=O)N(c2cc(Cl)c(F)c(Cl)c2)c2ncc(C(=O)NC3(C(=O)NC4(c5nnc[nH]5)CC4)CC3)n21` [Compound 62], the pKd was 8.15.
Take `C[C@H](NC(=O)c1cnc2n1[C@](C)(Cc1ccc(C#N)cc1)C(=O)N2c1cc(Cl)cc(Cl)c1)C(=O)N1CCC[C@@H](C(N)=O)C1` [Compound 13]: the pKd was 8.62.
Turning to `C[C@H](NC(=O)c1cnc2n1[C@](C)(Cc1ccc(C#N)cc1)C(=O)N2c1cc(Cl)cc(Cl)c1)C(=O)NC1CCC[C@H]1C(N)=O` (stereo partly shown) [Compound 114], the pKd was 7.49.
On the same count and under the same terms, then `C[C@@H](NC(=O)c1cnc2n1[C@](C)(Cc1ccc(C#N)cc1)C(=O)N2c1cc(Cl)cc(Cl)c1)C(=O)NC1(C(=O)O)CC1` [Compound 107], with 7.55; and `C[C@@]1(Cc2ccc(C#N)cc2)C(=O)N(c2cc(Cl)cc(Cl)c2)c2ncc(C(=O)NC3(C(=O)N4CC[C@@H](O)C4)CC3)n21` [Compound 160], with 8.23; and `C[C@@]1(Cc2ccc(C#N)cc2)C(=O)N(c2cc(Cl)c(F)c(Cl)c2)c2ncc(C(=O)NC3(C(=O)NC4(c5nccs5)CC4)CC3)n21` [Compound 60], with 7.89.
Consider `C[C@H](NC(=O)c1cnc2n1[C@](C)(Cc1ccc(C#N)cc1)C(=O)N2c1cc(Cl)cc(Cl)c1)C(=O)N[C@H](C)c1ccccn1` [Compound 2], for which the pKd is 8.05.
Take `C[C@@]1(Cc2ccc(C#N)cc2)C(=O)N(c2cc(Cl)cc(Cl)c2)c2ncc(C(=O)NC3(C(=O)N4CC[C@@H](c5noc(=O)[nH]5)C4)CC3)n21` [Compound 9]: the pKd is 8.34.
Still for that read-out and setting: then `C[C@@]1(Cc2ccc(C#N)cc2)C(=O)N(c2cc(Cl)cc(Cl)c2)c2ncc(C(=O)NC3(C(=O)N[C@@H]4CC[C@H](C(N)=O)C4)CC3)n21` [Compound 105], with 7.62; and `C[C@@H](NC(=O)c1cnc2n1[C@](C)(Cc1ccc(C#N)cc1)C(=O)N2c1cc(Cl)cc(Cl)c1)C(=O)Nc1nccs1` [Compound 286], with 7.00; and `C[C@H](NC(=O)c1cnc2n1[C@](C)(Cc1ccc(C#N)cc1)C(=O)N2c1cc(Cl)cc(Cl)c1)C(=O)NCCN1CCOCC1` [Compound 259], with 6.92.
`C[C@@H](NC(=O)c1cnc2n1[C@](C)(Cc1ccc(C#N)cc1)C(=O)N2c1cc(Cl)cc(Cl)c1)C(=O)Nc1ccnn1C` [Compound 129]: the pKd was 7.35.
On to `CC(=O)N1CCC(NC(=O)C2(NC(=O)c3cnc4n3[C@](C)(Cc3ccc(C#N)cc3)C(=O)N4c3cc(Cl)cc(Cl)c3)CC2)CC1` [Compound 143], for which the pKd is 7.15.
The same measure, in the same setting: with `CCN(C(C)=O)C1CCN(C(=O)C2(NC(=O)c3cnc4n3[C@](C)(Cc3ccc(OC(F)(F)F)cc3)C(=O)N4c3cc(Cl)cc(Cl)c3)CC2)C1` (stereo partly shown) [Compound 187] the figure was 7.66.
The same measure, in the same setting: then `C[C@@]1(Cc2ccc(C#N)cc2)C(=O)N(c2cc(Cl)cc(Cl)c2)c2ncc(C(=O)NC3(C(=O)N4CCC(S(C)(=O)=O)C4)CC3)n21` (stereo partly shown) [Compound 185], with 7.62.
The same measure, in the same setting: with `CC(=O)NC1CCCN(C(=O)C2(NC(=O)c3cnc4n3[C@](C)(Cc3ccc(C#N)cc3)C(=O)N4c3cc(Cl)cc(Cl)c3)CC2)C1` (stereo partly shown) [Compound 201] the figure was 7.47.

A further experiment relates to IL-2 production in human whole blood stimulated with staphylococcal enterotoxin B.
Assay: not given
The format is cell-based.
Conditions: not given
Take `C[C@@]1(Cc2ccc(C#N)cc2)C(=O)N(c2cc(Cl)cc(Cl)c2)c2ncc(C(=O)NC3(C(=O)NC4(c5nnc(C6CC6)[nH]5)CC4)CC3)n21` [BI00659245, (R)-5-(4-Cyano-benzyl)-7-(3,5-dichloro-phenyl)-5-methyl-6-oxo-6,7-dihydro-5H-imidazo[1,2-a]imidazole-3-carboxylic acid {1-[1-(5-cyclopropyl-4H-1,2,4-triazol-3-yl)-cyclopropylcarbamoyl]-cyclopropyl}-amide]: the WB turned out to be 12 ×.
